Assay results from ChEMBL document CHEMBL5113444, “Synthesis of biotinylated-LPG as a chemical biology tool enabling discovery of ALCAT1 modulators” (Bioorg Med Chem Lett, 2022).
The source made the active and inactive calls. The calls are words filed in the database; no cut-off is given here.

How the values were obtained:
[1] = biological target: T1, Lysocardiolipin acyltransferase 1 (Homo sapiens) (UniProt Q6UWP7); assay: Substrate activity at recombinant human ALCAT1 expressed in HEK293 cells using oleoyl-CoA as substrate assessed as acylated product formation by Rapidfire-triple quad mass spectrometry analysis; settings: filed as modulator
T1 sequence (whole entry): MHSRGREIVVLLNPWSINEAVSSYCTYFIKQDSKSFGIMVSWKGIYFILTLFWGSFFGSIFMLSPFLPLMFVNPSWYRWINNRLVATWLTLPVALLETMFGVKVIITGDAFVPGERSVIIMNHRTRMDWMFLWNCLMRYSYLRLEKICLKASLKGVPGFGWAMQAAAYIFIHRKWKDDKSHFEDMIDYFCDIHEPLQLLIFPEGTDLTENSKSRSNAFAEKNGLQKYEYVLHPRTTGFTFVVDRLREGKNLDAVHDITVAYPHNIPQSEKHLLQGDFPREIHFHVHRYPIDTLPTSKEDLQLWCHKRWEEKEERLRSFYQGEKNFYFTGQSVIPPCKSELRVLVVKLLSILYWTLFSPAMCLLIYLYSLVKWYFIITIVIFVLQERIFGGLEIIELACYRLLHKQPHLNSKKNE

[2] = biological target: T1, Lysocardiolipin acyltransferase 1 (Homo sapiens); assay: Substrate activity at recombinant human ALCAT1 expressed in HEK293 cells using oleoyl-CoA as substrate assessed as biotinylated (BTN)-di-oleoyl LPG product formation by Rapidfire-triple quad mass spectrometry analysis; settings: filed as modulator, time <= 64.0 min, TDE = time-dependent effect

Compound	Activity [1]	Activity [2]
CCCCCCCCCCCCCCCC(=O)OC[C@H](O)COP(=O)(O)OC[C@H](O)CO	Active	
O=C1N[C@H]2[C@H](CS[C@H]2CCCCC(=O)OCCCCCCC/C=C\CCCCCCCC(=O)OC[C@@H](O)COP(=O)(O)OCC(O)CO)N1 (some centres not stated)		Tde
